According to US12325697B2 (Nimbus Clio, Inc., priority 2021, dated 2025):
Blank lines part the entries; values can stand above or below the molecule they belong to.

Molecular target: Recombinant human Cbl-b (aa 36-427) (Homo sapiens (Human), UniProt Q13191)
Experiment: Cbl-b Biochemical Assay (TR-FRET)
Conditions: read-out: TR-FRET hCbl-b IC50
Procedure: Recombinant human Cbl-b (aa 36-427) was expressed in E. coli, purified and biotinylated in vitro. The protein was diluted to 12 nM in freshly prepared assay buffer consisting of 50 mM HEPES, pH 7.0, 100 mM NaCl, 5 mM MgCl2, 0.01% Triton-X 100, 0.01% BSA and 1 mM DTT. Recombinant human Src (aa 254-536)-[…]-Zap-70 (aa 281-297) fusion protein was expressed in E. coli and purified. Protein was diluted in assay buffer to 2-5 nM and supplemented with ATP to 1 mM. Fluorescein-BODIPY labeled UBE[…]([…])-Ub was prepared by conjugating ubiquitin (Ub) labeled at its N-terminus with Fluorescein-BODIPY maleimide (ThermoFisher Catalog no B10250) to E. coli expressed and purified UBE[…]([…]) [see Dou et al Nature Structural and Molecular Biology 8: 982-987, 2013]. Recombinant human UBE2D2([…]) was expressed in E. coli, purified and ubiquitinated and Bodipy labelled in vitro. Protein was diluted to 200 nM in assay buffer without MgCl2 (or Cisbio PPI buffer). Streptavidin-Terbium was added to 2 nM and EDTA to 10 mM, to provide a binding assay mix. Compounds were dissolved in DMSO and diluted to prepare a ten-point dilution series. 100 nl of each compound concentration was dispensed in duplicate in a 384 well black assay plate using acoustic dispensing. Wells for maximum signal controls received 100 nl of DMSO only and wells for minimum signal controls received 100 nl of a reference inhibitor compound at a final assay concentration of […] to produce 100% inhibition. 5 μl of diluted Cbl-b enzyme was added to all wells of the assay plate and incubated at RT for 30-60 min. The enzyme assay was initiated by addition of 5 μl of Src-Zap/ATP mix to all wells, and the plate incubated at RT for 60 min. The enzyme reaction was terminated and the binding reaction was initiated by adding 10 μl of binding assay mix to all wells and incubating the plate at RT for 60 min prior to assay read. Final assay conditions consisted of 6 nM Cbl-b, 1-2.5 nM Src-Zap70, 0.5 mM ATP, 1% (v/v) DMSO (enzyme reaction) and 100 nM UBE2D2([…])-Ub-FL-BODIPY, 5 mM EDTA, 1 nM Streptavidin-Tb (binding reaction). The HTRF assay signal was measured at 520 nm on an Envision plate reader, with reference signal at 485 or 620 nm. Data was normalized using maximum and minimum assay controls: % Inhibition=100-(100*((maximum control)-unknown)/(maximum control-minimum control)). A 4-parameter dose-response equation was used to fit the normalized dose-response data and derive an IC50 for test compounds.

Recombinant human Cbl-b (aa 36-427), sequence (Q13191 36-427): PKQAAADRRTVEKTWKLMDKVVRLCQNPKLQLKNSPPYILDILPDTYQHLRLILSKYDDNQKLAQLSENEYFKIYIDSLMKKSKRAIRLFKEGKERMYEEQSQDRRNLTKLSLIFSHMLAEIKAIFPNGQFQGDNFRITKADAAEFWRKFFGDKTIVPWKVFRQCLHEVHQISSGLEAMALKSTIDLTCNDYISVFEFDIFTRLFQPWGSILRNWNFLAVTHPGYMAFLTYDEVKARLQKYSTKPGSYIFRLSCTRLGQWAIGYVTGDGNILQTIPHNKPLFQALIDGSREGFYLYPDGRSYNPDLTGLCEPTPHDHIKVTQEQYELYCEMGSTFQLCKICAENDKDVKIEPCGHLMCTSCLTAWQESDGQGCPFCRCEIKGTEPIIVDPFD

SMILES: Cn1cnnc1-c1cnn(C)c1-c1cc(Cl)nc(N2Cc3c(cc(CN4CCC5(CC5)C4)cc3C(F)(F)F)C2=O)c1 [ABD-1, 6-((5-Azaspiro [2.4]heptan-5-yl)methyl)-2-(6-chloro-4-(1-methyl-4-(4-methyl-4H-1,2,4-triazol-3-yl)-1H-pyrazol-5-yl)pyridin-2-yl)-4-(trifluoromethyl)isoindolin-1-one]
IC50: 0.2 to 1 µM

SMILES: Cn1cnnc1-c1cnn(C)c1-c1cc(O)nc(N2Cc3c(cc(CN4CCC5(CC5)C4)cc3C(F)(F)F)C2=O)c1 [ABE-1, 6-((5-Azaspiro [2.4]heptan-5-yl)methyl)-2-(6-hydroxy-4-(1-methyl-4-(4-methyl-4H-1,2,4-triazol-3-yl)-1H-pyrazol-5-yl)pyridin-2-yl)-4-(trifluoromethyl)isoindolin-1-one]
IC50: 1 to 10 µM

SMILES: CCNc1cc(-c2c(-c3nncn3C)cnn2C)cc(NC(=O)c2cc(CN3CCC4(CC4)C3)cc(C3CC3)n2)n1 [ABF-8, 4-((5-Azaspiro [2.4]heptan-5-yl)methyl)-6-cyclopropyl-N-(6-(ethylamino)-4-(1-methyl-4-(4-methyl-4H-1,2,4-triazol-3-yl)-1H-pyrazol-5-yl)pyridin-2-yl)picolinamide]
IC50: ≤ 0.2 µM

SMILES: Cn1cnnc1-c1cnn(C)c1-c1cc(CN)nc(N2Cc3c(cccc3C(F)(F)F)C2=O)c1 [ABG-3, 2-(6-(Aminomethyl)-4-(1-methyl-4-(4-methyl-4H-1,2,4-triazol-3-yl)-1H-pyrazol-5-yl)pyridin-2-yl)-4-(trifluoromethyl)isoindolin-1-one]
IC50: 10 to 50 µM

SMILES: CCOc1cc(-c2c(-c3nncn3C)cnn2C)cc(N2Cc3c(cccc3C(F)(F)F)C2=O)n1 [ABH-2, 2-(6-Ethoxy-4-(1-methyl-4-(4-methyl-4H-1,2,4-triazol-3-yl)-1H-pyrazol-5-yl)pyridin-2-yl)-4-(trifluoromethyl)isoindolin-1-one]
IC50: 0.2 to 1 µM

SMILES: CC(C)Nc1cc(-c2c(-c3nncn3C)cnn2C)cc(N2Cc3c(cccc3C(F)(F)F)C2=O)n1 [ABI-1, 2-(6-(Isopropylamino)-4-(1-methyl-4-(4-methyl-4H-1,2,4-triazol-3-yl)-1H-pyrazol-5-yl)pyridin-2-yl)-4-(trifluoromethyl)isoindolin-1-one]
IC50: ≤ 0.2 µM

SMILES: CCNc1cc(-c2c(-c3nncn3C)cnn2C)cc(NC(=O)c2cc(C)nc(C3CC3)n2)n1 [ABJ-4, 2-Cyclopropyl-N-(6-(ethylamino)-4-(1-methyl-4-(4-methyl-4H-1,2,4-triazol-3-yl)-1H-pyrazol-5-yl)pyridin-2-yl)-6-methylpyrimidine-4-carboxamide]
IC50: 0.2 to 1 µM

SMILES: Cn1cnnc1-c1ccccc1-c1cccc(NC(=O)c2cc(OCCN3CCCC3)nc(C3CC3)n2)c1 [ABK-7, 2-Cyclopropyl-N-(2′-(4-methyl-4H-1,2,4-triazol-3-yl)-[1,1′-biphenyl]-3-yl)-6-(2-(pyrrolidin-1-yl)ethoxy)pyrimidine-4-carboxamide]
IC50: 0.2 to 1 µM

SMILES: CCNc1cc(-c2c(-c3nncn3C)cnn2C)cc(NC(=O)c2cc(=O)n(CCN3CCCC3)c(C3CC3)n2)n1 [ABL-4, 2-Cyclopropyl-N-(6-(ethylamino)-4-(1-methyl-4-(4-methyl-4H-1,2,4-triazol-3-yl)-1H-pyrazol-5-yl)pyridin-2-yl)-6-oxo-1-(2-(pyrrolidin-1-yl)ethyl)-1,6-dihydropyrimidine-4-carboxamide]
IC50: 10 to 50 µM

SMILES: Cn1cnnc1-c1ccccc1-c1cccc(NC(=O)c2cc(=O)n(CCN3CCCC3)c(C3CC3)n2)c1 [ABM-1, 2-Cyclopropyl-N-(2′-(4-methyl-4H-1,2,4-triazol-3-yl)-[1,1′-biphenyl]-3-yl)-6-oxo-1-(2-(pyrrolidin-1-yl)ethyl)-1,6-dihydropyrimidine-4-carboxamide]
IC50: 1 to 10 µM

SMILES: CCNc1cc(-c2c(-c3nncn3C)cnn2C)cc(N2Cc3c(cc(CN4CC(F)C4)cc3C(F)(F)F)C2=O)n1 [ABN-2, 2-(6-(Ethylamino)-4-(1-methyl-4-(4-methyl-4H-1,2,4-triazol-3-yl)-1H-pyrazol-5-yl)pyridin-2-yl)-6-((3-fluoroazetidin-1-yl)methyl)-4-(trifluoromethyl)isoindolin-1-one]
IC50: ≤ 0.2 µM

SMILES: CCNc1cc(-c2c(-c3nncn3C)cnn2C)cc(N2Cc3c(cc(CN4CCC(F)C4)cc3C(F)(F)F)C2=O)n1 (stereo not drawn) [ABP-3, 2-(6-(Ethylamino)-4-(1-methyl-4-(4-methyl-4H-1,2,4-triazol-3-yl)-1H-pyrazol-5-yl)pyridin-2-yl)-6-((3-fluoropyrrolidin-1-yl)methyl)-4-(trifluoromethyl)isoindolin-1-one]
IC50: ≤ 0.2 µM

SMILES: CCNc1cc(-c2c(-c3nncn3C)cnn2C)cc(C(=O)O)n1 [ABQ-1, 6-(Ethylamino)-4-(1-methyl-4-(4-methyl-4H-1,2,4-triazol-3-yl)-1H-pyrazol-5-yl)picolinic acid]
IC50: 10 to 50 µM

SMILES: CCNc1cc(-c2ccccc2-c2nncn2C)cc(N2Cc3c(cc(CN4CCC5(CC5)C4)cc3C(F)(F)F)C2=O)n1 [ABR-1, 6-((5-Azaspiro [2.4]heptan-5-yl)methyl)-2-(6-(ethylamino)-4-(2-(4-methyl-4H-1,2,4-triazol-3-yl)phenyl)pyridin-2-yl)-4-(trifluoromethyl)isoindolin-1-one]
IC50: ≤ 0.2 µM

SMILES: Cn1cnnc1-c1ccccc1-c1cc(NCCO)nc(N2Cc3c(cccc3C(F)(F)F)C2=O)c1 [ABT-2, 2-(6-((2-Hydroxyethyl)amino)-4-(2-(4-methyl-4H-1,2,4-triazol-3-yl)phenyl)pyridin-2-yl)-4-(trifluoromethyl)isoindolin-1-one]
IC50: 0.2 to 1 µM

SMILES: CCNc1cc(-c2c(-c3nncn3C)cnn2C)cc(NC(=O)c2cc(OCCN3CCCC3)nc(C3CC3)n2)n1 [ABU-2, 2-Cyclopropyl-N-(6-(ethylamino)-4-(1-methyl-4-(4-methyl-4H-1,2,4-triazol-3-yl)-1H-pyrazol-5-yl)pyridin-2-yl)-6-(2-(pyrrolidin-1-yl)ethoxy)pyrimidine-4-carboxamide]
IC50: 0.2 to 1 µM

SMILES: CCNc1cc(-c2c(-c3nncn3C)cnn2C)cc(CNC(=O)OC(C)(C)C)n1 [ABV-1, tert-Butyl ((6-(ethylamino)-4-(1-methyl-4-(4-methyl-4H-1,2,4-triazol-3-yl)-1H-pyrazol-5-yl)pyridin-2-yl)methyl)carba mate]
IC50: 10 to 50 µM

SMILES: CCNc1cc(-c2c(-c3nncn3C)cnn2C)cc(NC(=O)c2cc(C)cc(C3CC3)n2)n1 [ABW-3, 6-Cyclopropyl-N-(6-(ethylamino)-4-(1-methyl-4-(4-methyl-4H-1,2,4-triazol-3-yl)-1H-pyrazol-5-yl)pyridin-2-yl)-4-methylpicolinamide]
IC50: 0.2 to 1 µM

IC50: ≤ 0.2 µM
SMILES: CCNc1cc(-c2c(-c3nncn3C)cnn2C)cc(N2Cc3c(cccc3C(F)(F)F)C2=O)c1 [ABX-6, 2-[3-(Ethylamino)-5-[2-methyl-4-(4-methyl-1,2,4-triazol-3-yl)pyrazol-3-yl]phenyl]-4-(trifluoromethyl)-3H-isoindol-1-one]

SMILES: CCNc1cc(-c2c(-c3nncn3C)cnn2C)cc(NC(=O)c2cc(CO)cc(C3CC3)n2)n1 [ABZ-7, 6-Cyclopropyl-N-(6-(ethylamino)-4-(1-methyl-4-(4-methyl-4H-1,2,4-triazol-3-yl)-1H-pyrazol-5-yl)pyridin-2-yl)-4-(hydroxymethyl) picolinamide]
IC50: ≤ 0.2 µM

SMILES: Cn1cnnc1-c1ccccc1-c1cc(N2CCCC2)nc(N2Cc3c(cccc3C(F)(F)F)C2=O)c1 [AC-3]
IC50: 1 to 10 µM

IC50: ≤ 0.2 µM
SMILES: CCNc1cc(-c2c(-c3nncn3C)cnn2C)cc(N2Cc3c(cc(CN4CC[C@@H](F)C4)cc3C(F)(F)F)C2=O)n1 [ACA-1, (R)-2-(6-(Ethylamino)-4-(1-methyl-4-(4-methyl-4H-1,2,4-triazol-3-yl)-1H-pyrazol-5-yl)pyridin-2-yl)-6-((3-fluoropyrrolidin-1-yl)methyl)-4-(trifluoromethyl)isoindolin-1-one]

IC50: ≤ 0.2 µM
SMILES: CCNc1cc(-c2c(-c3nncn3C)cnn2C)cc(N2Cc3c(cc(CN4CC[C@H](F)C4)cc3C(F)(F)F)C2=O)n1 [ACB-1, (S)-2-(6-(Ethylamino)-4-(1-methyl-4-(4-methyl-4H-1,2,4-triazol-3-yl)-1H-pyrazol-5-yl)pyridin-2-yl)-6-((3-fluoropyrrolidin-1-yl)methyl)-4-(trifluoromethyl)isoindolin-1-one]

SMILES: Cn1cnnc1-c1cc(C#N)ccc1-c1cccc(N2Cc3c(cccc3C(F)(F)F)C2=O)c1 [ACC-8, 2-(4-Methyl-4H-1,2,4-triazol-3-yl)-3′-(1-oxo-4-(trifluoromethyl)isoindolin-2-yl)-[1,1′-biphenyl]-4-carbonitrile]
IC50: ≤ 0.2 µM
